# From patent publication US20180371076A1, “MATERNAL TH17 CELLS AND PSYCHIATRIC DISORDERS” (New York University, priority 2017, published 2018)
# “Also recorded” adds a separate entry of the source.
# Legend:
# [1] = test system: offspring of pregnant mice (MIA mouse model); assay: Three-chamber social approach test in adult offspring; assay type: in vivo
# Experimental: Maternal Immune Activation. Mice were mated overnight and females were checked daily for the presence of seminal plugs, noted as embryonic day 0.5 (E0.5). On E12.5, pregnant female mice were weighed and injected with a single dose (20 mg/kg; i.p.) of poly(I:C) (Sigma Aldrich) or PBS vehicle. Each dam was returned to its cage and left undisturbed until the birth of its litter. All pups remained with the mother until weaning on postnatal day 21 (P21), at which time mice were group housed at maximum 5 per cage with same-sex littermates. For the IL-17 cytokine blockade experiment, monoclonal IL-17a blocking antibody (clone 50104; R&D) or isotype control antibody (IgG2a, clone 54447; R&D) was administered 6 h before maternal immune activation (FIG. 2) via i.p. route (500 μg/animal) or 2 days after maternal immune activation (FIG. 5) via i.p. route (500 μg/animal).
# Three-chamber social approach. Twelve-week-old male mice were tested for social behavior using a three-chamber social approach paradigm. Experimental mice were habituated for 1 h in separate clean holding cages and then introduced into a three-chamber arena with only empty object-containment cages (circular metallic cages, Stoelting Neuroscience) for a 10-min acclimation phase in two 5-min sessions in a 3-4 h period. The following day the mice were placed in the center chamber (without access to the left and right social test areas) and allowed to explore the center area for 5 min. […] Experimental mice were given 10 min to explore both chambers and measured for approach behavior as interaction time (i.e. sniffing, approach) with targets in each chamber (within 2 cm, excluding non-nose contact or exploration). Sessions were video-recorded and object exploration time and total distance moved were analyzed using the Noldus tracking system. A social preference index was calculated as the percentage of time spent investigating the social target out of the total exploration time of both objects. […]
# IL-10 = IL-10 ELISA of maternal serum and placenta/decidua extracts; assay type: in vivo, mouse; settings: poly(I:C) at E12.5
# Experimental: Cell preparation, Flow cytometry, ELISA. Embryos at each implantation site were dissected in ice-cold HBSS containing Ca^2+ and Mg^2+. Myometrium was first peeled off of the decidua and embryos were discarded. Dissected decidual and placental tissues were then minced and enzymatically dissociated in HBSS containing 0.28 Wunsch units (WU)/mL Liberase (Roche) and 30 μg/ml DNase I (Roche) for 30 min at 37° C. with intermittent mixing. Digested tissues were washed in PBS containing 5 mM EDTA and 5% fetal bovine serum and then incubated again in the same buffer for 15 min at 37° C. prior to filtration through a cell strainer. After separation on a discontinuous 40% & 80% Percoll gradient, the mononuclear cell fraction was treated with ACK lysis buffer (Lonza). Mononuclear cells (1×10^6 cells/mL) were stimulated with phorbol 12-myristate 13-acetate (PMA, 50 ng/mL; Sigma), ionomycin (500 ng/mL; Sigma) in T cell media: RPMI 1640 (Invitrogen) supplemented with 10% (v/v) heat-inactivated FBS (Hyclone), 50 U penicillin-streptomycin (Invitrogen), 2 mM glutamine, and 50 μM β-mercaptoethanol. Cell culture supernatant was used for ELISA analyses. For flow cytometry, cells were incubated for 5 h with PMA, ionomycin and GolgiStop (BD). […] For ELISA with sera and placenta/decidua extract, IL-6 (Ebioscience), IL-17a (Biolgened), and IL-10 (BD) were measured according to the manufacturer's protocol. […]
Molecule,social interaction in adult offspring ([1]; prenatal exposure to MIA (poly(I:C) at E12.5)),IL-10 in serum and placenta/decidua extracts (IL-10),mobility (total distance in social approach test) ([1]; intra-ventricular injection at E14.5),"social approach behavior ([1]; intra-ventricular injection at E14.5, compared with sham injection)"
poly(I:C),social interaction deficits,not affected; also recorded: did not affect,–,–
"recombinant IL-17a protein: Recombinant mouse IL-17a cytokine (R&D), injected into the fetal brain ventricle (protein, UniProt Q62386 26-158, looked up) Interleukin-17A: AAIIPQSSACPNTEAKDFLQNVKVNLKVFNSLGAKVSSRRPSDYLNRSTSPWTLHRNEDPDRYPSVIWEAQCRHQRCVNAEGKLDHHMNSVLIQQEILVLKREPESCPFTFRVEKMLVGVGCTCVASIVRQAA",–,–,not due to group differences in mobility,social approach deficit
